Source: patent publication US6638912B2, “Peptide compositions mimicking TGF-β activity” (The Regents of the University of California, priority 1995, dated 2003)
Entries after “also recorded” stand apart in the source; their conditions may differ. Where two headings read alike, the source gives them in different places. Blank lines part the entries; values can stand above or below the substance they belong to. Square brackets hold non-standard residues; d marks the D form. Ends that are not written are not given here. NMeA = CN[C@@H](C)C(=O)O; Abu = CC[C@H](N)C(=O)O; Aib = CC(C)(N)C(=O)O

Legend:
[1] = system: Mv-1-Lu mink lung epithelial cells; experiment: Inhibition of DNA synthesis (3H-thymidine incorporation) and proliferation of Mv-1-Lu cells; assay type: cell-based; settings: for Bioactivity as agonist (tested as for DNA inhibition): Example 7; for Inhibition of DNA synthesis / proliferation of Mv-1-Lu cells (in words): 10−9 to 10−6 M range; for Inhibition in comparison to cytomodulin (Inhib by new peptide/Inhib by cytomodulin): 3H-thymidine incorporation, MV-1-Lu cells; for % Inhibition of incorporation of 3H-thymidine / 3H-Radioactivity: MV-1 Lu cells; for 3H-Radioactivity: control without peptide 3.57
Description: The effect of TGF-β and cytomodulin were evaluated by determining the rate of […]thyidine incorporation into total acid-insoluble DNA and cell number. See generally, Sampath et al., Journal of Biological Chemistry, 267, pp. 20352-20362 (1992). DNA synthesis rates were determined in triplicate cultures after 24 hour treatment with various concentrations (10−9 M to 10^−6M) of either TGF-β or cytomodulin (which was synthesized by the Merrifield method) by adding [methyl-^3H]thymidine (2 μCi/ml, 80 Ci/mmol) for 6 hours before the termination of the culture. Incorporation was terminated by aspiration of the medium, and after washing three times with phosphate-buffered saline, the trichloroacetic acid (10%)-precipitated radioactive DNA was extracted with 1.0% (w/v) sodium dodecyl sulfate, 0.1 M NaOH and quantitated by liquid scintillation counting. For cell number determination, 1×10^5 cells were plated in flasks in MEM containing 10% FBS, and after 24 hours, the growth medium was replaced with serum-free medium containing various conceptions of TGF-β and cytomodulin. Triplicate cultures were harvested every 24 hours for the duration of 7 days, and the cell number was determined by counting cells released by trypsin digestion in a fixed volume hemacytometer.
The numbers shown at the various concentration are the ratio of the inhibition rate of the peptide being tested over the inhibition rate of cytomodulin (SEQ ID NO: 1) at the same concentration.
Tests for bioactivity were conducted as described above for DNA inhibition.

[2] = system: NRK-49 F normal rat kidney fibroblasts; experiment: Growth and colony formation by NRK-49 F fibroblasts in soft agar; assay type: cell-based; settings: for Colony formation in soft agar: 100 nM
Description: The original assay for TGF-β, the ability to promote anchorage independent growth of normal fibroblasts is still one of the hallmarks of TGF-β activity. NRK-49 F fibroblasts were grown at 37° C. in DEM supplemented with 10% fetal calf serum. […] To this, either 100 nM TGF-β (positive control) or 100 nM cytomodulin was added. NRK49 F fibroblasts (5×10^4 cells/ml) were mixed with 0.3% agar were plated on the bottom of 35 mm culture dishes. Colony formation was observed starting on day 3 of culture.

[3] = system: NRK-49 F normal rat kidney fibroblasts; settings: in the absence of EGF and PDGF; from Massagu, J. Biol. Chem. 259 (1984); cited from earlier work
human dermal fibroblasts = experiment: Gene expression in human dermal fibroblasts (Northern analysis); assay type: cell-based
Description: (§1) Total cellular RNA was isolated using essentially the method described by Maniatis. Sambrook et al., Molecular Cloning: A Laboratory Marual, Cold Spring Harbor Laboratory Press, Second Edition (1989). Cells were lysed with 0.5% SDS and 0.1 potassium acetate. The lysate was extracted with phenol and centrifuiged at 5000 rpm for 15 minutes. The aqueous phase was precipitated with 2 volumes ethanol in 0.1 M Tris, pH 8.0 and 0.2 M NaCl. The pellet was resuspended and quantitated by measuring the ultraviolet absorbance at 260 nm. RNA purity was assessed by comparing the ultraviolet absorbance at 260 inm with that at 280 nm.
(§2) RNA (10 μg/lane) was electrophoresed at 3 to 4 v/cm through a 0.7% agarose, 2.2 M formaldehyde denaturing gel. RNA was transferred by capillary transfer to nylon membranes. RNA integrity, gel loading, and transfer efficiency were assessed by methylene blue stained 28S and 18 S bands. The filters were baked at 80° C. for 2 hours to immobilize the RNA. After baking, the filters were hybridized at 65° C. in 0.5 M NaPO4 buffer, pH 7.0, containing 1 mM EDTA, 7% sodium dodecyl sulfate, and 1% bovine serum albumin. cDNA probes were labeled with DDIG […] by the random primer method, using Klenow enzyme. Hybridization for 18 hours at 65° C. followed by washing, was performed.
(§3) Data were analyzed by scanning digoxigenin-dVTP according to manufacturer's procedure (Boehringer Mannheim Biochemica, DIG DNA labelling kit, Cat. No. 1175033).

[4] = system: human osteogenic sarcoma (HOS) cell line; experiment: Gene expression in HOS cells (Northern analysis); assay type: cell-based
Description: as §1, §2, §3

TGF-β activity = experiment: TGF-β like activity, overall statement, test not specified; assay type: cell-based
[5] = 1 mM peptide (so in the source)

Substance: L-I-(D-Ala)-E-A-K (LI[dA]EAK) [SEQ ID NO:39]
- Bioactivity as agonist (tested as for DNA inhibition) [1]: active as an agonist

Substance: TGF-β
- Colony formation in soft agar ([2]; with EGF and PDGF): grew colonies
- Colony formation in soft agar [3]: does not induce colony formation

- Expression of collagenase (human dermal fibroblasts): decreased the expression
Substance: L-I-A-P-E-A (LIAPEA; TGF-beta mimic) [L1]
- Inhibition of DNA synthesis / proliferation of Mv-1-Lu cells (in words) [1]: inhibited the proliferation
- Growth and colony formation of NRK-49F cells in soft agar (in words) [2]: promoted the growth
- Expression of TGF-β (human dermal fibroblasts): increased the expression
- Expression of type I collagen (human dermal fibroblasts): increased the expression
- Expression of TGF-β [4]: increased the expression
- Expression of alkaline phosphatase [4]: increased the expression
- Expression of type I collagen [4]: increased the expression
- TGF-β like activity (TGF-β activity): at least as much TGF-β like activity as cytomodulin

Substance: L-I-A-K-G-K (LIAKGK; TGF-beta mimic) [SEQ ID NO:16]
- Inhibition in comparison to cytomodulin (Inhib by new peptide/Inhib by cytomodulin) ([1]; 10 nM): 0.65
- Inhibition in comparison to cytomodulin (Inhib by new peptide/Inhib by cytomodulin) ([1]; 100 nM): 0.67

Substance: L-I-(Aib)-E-A-K (LI[Aib]EAK) [SEQ ID NO:22]
- Bioactivity as agonist (tested as for DNA inhibition) [1]: active as an agonist

Substance: L-I-A-G-E-G (LIAGEG; TGF-beta mimic) [SEQ ID NO:14]
- Inhibition in comparison to cytomodulin (Inhib by new peptide/Inhib by cytomodulin) ([1]; 1 nM): 0.66
- Inhibition in comparison to cytomodulin (Inhib by new peptide/Inhib by cytomodulin) ([1]; 10 nM): 0.85
- Inhibition in comparison to cytomodulin (Inhib by new peptide/Inhib by cytomodulin) ([1]; 100 nM): 1.41
- Inhibition in comparison to cytomodulin (Inhib by new peptide/Inhib by cytomodulin) ([1]; 1000 nM): 1.88

Substance: L-(Abu)-A-E-A-K (L[Abu]AEAK) [SEQ ID NO:6]
- % Inhibition of incorporation of 3H-thymidine ([1]; 1 nM peptide): 33%
- 3H-Radioactivity ([1]; 1 nM peptide): 2.02 10^3 dpm
- % Inhibition of incorporation of 3H-thymidine ([1]; 5 nM peptide): 35%
- 3H-Radioactivity ([1]; 5 nM peptide): 1.97 10^3 dpm

Substance: L-I-A-E-A-A (LIAEAA; TGF-beta mimic) [SEQ ID NO:11]
- Inhibition in comparison to cytomodulin (Inhib by new peptide/Inhib by cytomodulin) ([1]; 1 nM): 1.16
- Inhibition in comparison to cytomodulin (Inhib by new peptide/Inhib by cytomodulin) ([1]; 10 nM): 1.00
- Inhibition in comparison to cytomodulin (Inhib by new peptide/Inhib by cytomodulin) ([1]; 100 nM): 1.17
- Inhibition in comparison to cytomodulin (Inhib by new peptide/Inhib by cytomodulin) ([1]; 1000 nM): 1.85
- Inhibition of DNA synthesis / proliferation of Mv-1-Lu cells (in words) [1]: at least as much activity as cytomodulin

Substance: L-I-A-Q-A-K (LIAQAK; TGF-beta mimic) [SEQ ID NO:12]
- Inhibition in comparison to cytomodulin (Inhib by new peptide/Inhib by cytomodulin) ([1]; 1 nM): 0.90
- Inhibition in comparison to cytomodulin (Inhib by new peptide/Inhib by cytomodulin) ([1]; 10 nM): 1.10
- Inhibition in comparison to cytomodulin (Inhib by new peptide/Inhib by cytomodulin) ([1]; 100 nM): 0.80
- Inhibition in comparison to cytomodulin (Inhib by new peptide/Inhib by cytomodulin) ([1]; 1000 nM): 1.56

Substance: G-G-Q-I-A-N-I (GGQIANI; TGF-beta mimic) [SEQ ID NO:7]
- TGF-β like activity (TGF-β activity): did not display significant TGF-β activity

Substance: L-(Aib)-A-E-A-K (L[Aib]AEAK) [SEQ ID NO:4]
- % Inhibition of incorporation of 3H-thymidine ([1]; 5 nM peptide): 35%
- 3H-Radioactivity ([1]; 5 nM peptide): 2.31 10^3 dpm
- % Inhibition of incorporation of 3H-thymidine ([1]; 50 nM peptide): 46%
- 3H-Radioactivity ([1]; 50 nM peptide): 1.94 10^3 dpm
- % Inhibition of incorporation of 3H-thymidine ([1]; 100 nM peptide): 60%
- 3H-Radioactivity ([1]; 100 nM peptide): 1.44 10^3 dpm
- % Inhibition of incorporation of 3H-thymidine ([1]; 500 nM peptide): 55%
- 3H-Radioactivity ([1]; 500 nM peptide): 1.61 10^3 dpm
- % Inhibition of incorporation of 3H-thymidine [1, 5]: 27%
- 3H-Radioactivity [1, 5]: 2.60 10^3 dpm

Substance: L-I-A-G-G-E (LIAGGE; TGF-beta mimic) [SEQ ID NO:13]
- Inhibition in comparison to cytomodulin (Inhib by new peptide/Inhib by cytomodulin) ([1]; 1 nM): 1.10
- Inhibition in comparison to cytomodulin (Inhib by new peptide/Inhib by cytomodulin) ([1]; 10 nM): 1.33
- Inhibition in comparison to cytomodulin (Inhib by new peptide/Inhib by cytomodulin) ([1]; 100 nM): 1.45
- Inhibition in comparison to cytomodulin (Inhib by new peptide/Inhib by cytomodulin) ([1]; 1000 nM): 1.90
- Inhibition of DNA synthesis / proliferation of Mv-1-Lu cells (in words) [1]: inhibits thymidine uptake more than SEQ ID NO: 14

Substance: E-G-I-A-G-K (EGIAGK; TGF-beta mimic) [SEQ ID NO:8]
- TGF-β like activity (TGF-β activity): did not display significant TGF-β activity

Substance: L-I-A-D-A-K (LIADAK; TGF-beta mimic) [SEQ ID NO:9]
- Inhibition in comparison to cytomodulin (Inhib by new peptide/Inhib by cytomodulin) ([1]; 1 nM): 0.45
- Inhibition in comparison to cytomodulin (Inhib by new peptide/Inhib by cytomodulin) ([1]; 10 nM): 0.87
- Inhibition in comparison to cytomodulin (Inhib by new peptide/Inhib by cytomodulin) ([1]; 100 nM): 1.14
- Inhibition in comparison to cytomodulin (Inhib by new peptide/Inhib by cytomodulin) ([1]; 1000 nM): 1.25

- Expression of collagenase (human dermal fibroblasts): decreased the expression
Substance: L-I-A-E-A-K (LIAEAK; TGF-beta mimic) [L2]
- Inhibition of DNA synthesis / proliferation of Mv-1-Lu cells (in words) [1]: inhibited the proliferation
- Growth and colony formation of NRK-49F cells in soft agar (in words) [2]: promoted the growth
- Expression of TGF-β (human dermal fibroblasts): increased the expression
- Expression of type I collagen (human dermal fibroblasts): increased the expression
- Expression of TGF-β [4]: increased the expression
- Expression of alkaline phosphatase [4]: increased the expression
- Expression of type I collagen [4]: increased the expression
- TGF-β like activity (TGF-β activity): at least as much TGF-β like activity as cytomodulin

Substance: A-N-V-A-E-N-A (ANVAENA; TGF-beta mimic) [cytomodulin]
- Inhibition of DNA synthesis / proliferation of Mv-1-Lu cells (in words) [1]: inhibition of DNA synthesis; also recorded: at least as much as TGF-β
- Colony formation in soft agar ([2]; with EGF and PDGF): formed colonies to approximately the same extent as the TGF-β cultures; also recorded: much larger colonies
- Colony formation in soft agar ([2]; without EGF and PDGF): did induce colony formation; also recorded: formation of small colonies
- Expression of type I collagen (human dermal fibroblasts): induction of increased expression
- Expression of TGF-β [4]: increased the expression
- Expression of alkaline phosphatase [4]: stimulate; also recorded: increased the expression
- Expression of osteonectin [4]: stimulate
- Expression of type I collagen [4]: increased the expression

Substance: L-I-A-N-A-K (LIANAK; TGF-beta mimic) [SEQ ID NO:10]
- Inhibition in comparison to cytomodulin (Inhib by new peptide/Inhib by cytomodulin) ([1]; 1 nM): 1.70
- Inhibition in comparison to cytomodulin (Inhib by new peptide/Inhib by cytomodulin) ([1]; 10 nM): 2.00
- Inhibition in comparison to cytomodulin (Inhib by new peptide/Inhib by cytomodulin) ([1]; 100 nM): 1.43
- Inhibition in comparison to cytomodulin (Inhib by new peptide/Inhib by cytomodulin) ([1]; 1000 nM): 3.05
- Inhibition of DNA synthesis / proliferation of Mv-1-Lu cells (in words) [1]: even more than cytomodulin at every concentration tested

Substance: A-N-V-A-E-K (ANVAEK; TGF-beta mimic) [SEQ ID NO:15]
- Inhibition in comparison to cytomodulin (Inhib by new peptide/Inhib by cytomodulin) ([1]; 10 nM): 0.80
- Inhibition in comparison to cytomodulin (Inhib by new peptide/Inhib by cytomodulin) ([1]; 100 nM): 1.00

Substance: L-I-(Nme-A)-E-A-K (LI[NMeA]EAK) [SEQ ID NO:5]
- % Inhibition of incorporation of 3H-thymidine ([1]; 1 nM peptide): 47%
- 3H-Radioactivity ([1]; 1 nM peptide): 1.61 10^3 dpm
- % Inhibition of incorporation of 3H-thymidine ([1]; 5 nM peptide): 42%
- 3H-Radioactivity ([1]; 5 nM peptide): 1.76 10^3 dpm
- % Inhibition of incorporation of 3H-thymidine ([1]; 50 nM peptide): 41%
- 3H-Radioactivity ([1]; 50 nM peptide): 1.60 10^3 dpm
- % Inhibition of incorporation of 3H-thymidine ([1]; 100 nM peptide): 40%
- 3H-Radioactivity ([1]; 100 nM peptide): 1.81 10^3 dpm
- % Inhibition of incorporation of 3H-thymidine ([1]; 500 nM peptide): 53%
- 3H-Radioactivity ([1]; 500 nM peptide): 1.42 10^3 dpm

Substance: L-I-P-E-A-K (LIPEAK; TGF-beta mimic) [SEQ ID NO:21]
- Bioactivity as agonist (tested as for DNA inhibition) [1]: active as an agonist
